These results are taken from paper PMC4491811, “Force-induced chemical reactions on the metal centre in a single metalloprotein molecule” (Nature Communications, 2015).

This assay addresses T1, rubredoxin (RD), in polyprotein (RD-GB1)n (Pyrococcus furiosus, UniProt P24297).
T1 construct: gene rub; full-length ferric (FeS4) rubredoxin fused to GB1 fingerprint domain, His-tag purified from E. coli DH5alpha, linked by BM(PEO)3 thiol-maleimide coupling into (RD-GB1)n
T1 sequence (P24297 2-54): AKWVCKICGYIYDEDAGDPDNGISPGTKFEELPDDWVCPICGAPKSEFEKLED
In words: single-molecule AFM force clamp, FeS4 rupture rate against [KSCN]. The settings on record: pH 7.4, 100 mM Tris and NaCl, KSCN 5-800 mM; ferric-thiolate bond rupture rate extrapolated to zero force (Bell-Evans); FeS4 centre exposed by force-induced partial unfolding; not an affinity. Format: binding.

For the molecule `N#CS` [SCN^−], the “k (second-order rate constant of ligand substitution)” value was 0.36 M⁻¹ s⁻¹.
